Tests used:
tankyrase 2 (TNKS 2) = target: T1, tankyrase 2 (TNKS 2) (Homo sapiens, UniProt Q9H2K2); assay: Tankyrase inhibitory activity test (ELISA, self-polyADP ribosylation), tankyrase 2; assay type: biochemical; conditions: ELISA, self-polyADP ribosylation; class symbols; read-out: TNKS2 (inhibitory activity against tankyrase 2, IC50 value)
T1 construct: 613-1, 116aa; made in house; host or cells: cell-free protein synthesis system
How it was run: (§1)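 IC50 was fitted to residual self-polyADP-ribosylation activity, detected by HRP-streptavidin chemiluminescence. Plate-bound Flag fusions (TNKS1 1,024-1,327aa SAM+PARP; TNKS2 613-1,116aa ANK5+SAM+PARP, cell-free synthesized) saw compound for 10 min at room temperature in 50 mM Tris-HCl pH 8.0, 4 mM MgCl2, 0.2 mM DTT. Reaction with 225 μM NAD/25 μM 6-biotin-17-NAD solution ran 45 min at 30 °C.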

tankyrase 1 (TNKS 1) = target: T2, tankyrase 1 (TNKS 1) (Homo sapiens, UniProt O95271); assay: Tankyrase inhibitory activity test (ELISA, self-polyADP ribosylation), tankyrase 1; assay type: biochemical; conditions: ELISA, self-polyADP ribosylation; class symbols; read-out: TNKS1 (inhibitory activity against tankyrase 1, IC50 value)
T2 construct: 1,024-1,327aa; made in house; host or cells: cell-free protein synthesis system
How it was run: as §1

[1] = tested on: human colorectal cancer cell line, COLO-320DM; assay: Cell proliferation inhibitory activity test (Celltiter-Glo Luminescent Cell Viability Assay); assay type: cell-based; conditions: COLO-320DM cells, 96 hours, class symbols, read-out: COLO-320 DM (cell proliferation inhibitory activity, GI50 value)
How it was run: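 GI50 is taken as the concentration halving cell growth versus 1% DMSO control, measured by ATP luminescence. Compound exposure lasted 96 h at 37° C. under 5% CO2, after overnight seeding in RPMI-1640 with 10% FBS and 2 mM glutamine.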

T1 sequence (Q9H2K2 613-1166): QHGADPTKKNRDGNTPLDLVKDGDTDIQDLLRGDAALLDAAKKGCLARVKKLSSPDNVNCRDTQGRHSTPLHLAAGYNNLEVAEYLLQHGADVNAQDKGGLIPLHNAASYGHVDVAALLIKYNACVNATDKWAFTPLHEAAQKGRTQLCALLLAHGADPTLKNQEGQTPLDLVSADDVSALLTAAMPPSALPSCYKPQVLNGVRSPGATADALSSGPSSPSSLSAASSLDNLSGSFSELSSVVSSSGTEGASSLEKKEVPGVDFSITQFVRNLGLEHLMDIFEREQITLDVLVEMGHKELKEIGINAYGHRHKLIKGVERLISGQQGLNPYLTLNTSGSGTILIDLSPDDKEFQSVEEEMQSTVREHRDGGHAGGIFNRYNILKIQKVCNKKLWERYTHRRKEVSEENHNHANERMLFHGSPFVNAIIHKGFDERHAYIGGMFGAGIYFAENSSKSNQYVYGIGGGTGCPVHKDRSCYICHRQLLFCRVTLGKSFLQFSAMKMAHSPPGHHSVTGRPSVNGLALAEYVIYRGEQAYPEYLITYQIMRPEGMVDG
T2 sequence (O95271 1024-1327): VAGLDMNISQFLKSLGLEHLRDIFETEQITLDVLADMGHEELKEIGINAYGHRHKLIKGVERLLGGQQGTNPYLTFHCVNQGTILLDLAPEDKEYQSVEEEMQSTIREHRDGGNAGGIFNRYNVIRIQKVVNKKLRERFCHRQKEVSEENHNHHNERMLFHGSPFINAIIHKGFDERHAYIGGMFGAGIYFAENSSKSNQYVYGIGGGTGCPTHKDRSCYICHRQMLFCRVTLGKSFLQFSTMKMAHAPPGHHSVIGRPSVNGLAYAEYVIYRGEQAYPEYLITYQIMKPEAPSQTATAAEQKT

| IC50 (tankyrase 2 (TNKS 2)) | IC50 (tankyrase 1 (TNKS 1)) | GI50 [1] | SMILES |
| --- | --- | --- | --- |
| < 20 nM | < 20 nM | < 100 nM | CN1CCCc2c1nc(N1CCC3(CC1)C(=O)N(C)c1cc(N4CCC(C(=O)O)CC4)cc(F)c13)[nH]c2=O [Example 422, 1-[4-fluoro-1-methyl-1′-(8-methyl-4-oxo-3,4,5,6,7,8-hexahydro-pyrido[2,3-d]pyrimi-din-2-yl)-2-oxospiro [indoline-3,4′-piperidin]-6-yl]piperidine-4-carboxylic acid] |
| < 20 nM | < 20 nM | < 100 nM | CN1CCCc2c1nc(N1CCC3(CC1)C(=O)N(C)c1cc(N4CC(C(=O)O)C4)cc(F)c13)[nH]c2=O [Example 423, 1-[4-fluoro-1-methyl-1′-(8-methyl-4-oxo-3,4,5,6,7,8-hexahydro-pyrido[2,3-d]pyrimi-din-2-yl)-2-oxospiro[in-doline-3,4′-piperidin]-6-yl]azetidine-3-carboxylic acid] |
| < 20 nM | < 20 nM | 100 to 600 nM | CN1CCCc2c1nc(N1CCC3(CC1)C(=O)N(CC(N)=O)c1cc(F)cc(F)c13)[nH]c2=O [Example 424, 2-[4,6-difluoro-1′-(8-methyl-4-oxo-3,4,5,6,7,8-hexahydropyrido [2,3-d]pyrimidin-2-yl)-2-oxospiro[indoline-3,4′-piperidin]-1(2H)-yl]acetamide] |
| < 20 nM | < 20 nM | 600 to 1000 nM | CN1CCCc2c1nc(N1CCC3(CC1)C(=O)N(C)c1cc(OCC(=O)NS(C)(=O)=O)cc(F)c13)[nH]c2=O [Example 427, 2-{[4-fluoro-1-methyl-1′-(8-methyl-4-oxo-3,4,5,6,7,8-hexahydro-pyrido[2,3-d]pyrimi-din-2-yl)-2-oxospiro [indoline-3,4′-piperidin]-6-yl]oxy}-N-(methyl-sulfonyl)acetamide] |
| < 20 nM | < 20 nM | 100 to 600 nM | CN1CCCc2c1nc(N1CCC3(CC1)C(=O)N(C)c1cc(OCCNS(=O)(=O)N(C)C)cc(F)c13)[nH]c2=O [Example 428, 6-[2-(N,N-dimethyl-sulfamoyl)amino-ethoxy]-4-fluoro-1-methyl-1′-(8-methyl-4-oxo-3,4,5,6,7,8-hexahydro-pyrido[2,3-d]pyrimi-din-2-yl)spiro [indoline-3,4′-piperidin]-2(1 H)-one] |
| < 20 nM | < 20 nM | 100 to 600 nM | CN1CCCc2c1nc(N1CCC3(CC1)C(=O)N(CCO)c1cc(OCC#N)cc(F)c13)[nH]c2=O [Example 429, {[4-fluoro-1-(2-hydroxy-ethyl)-1′-(8-methyl-4-oxo-3,4,5,6,7,8-hexahydro-pyrido[2,3-d]pyrimidin-2-yl)-2-oxospiro[indoline-3,4′-piperidin]-6-yl]oxy} acetonitrile] |
| < 20 nM | < 20 nM | 600 to 1000 nM | CN1CCCc2c1nc(N1CCC3(CC1)C(=O)N(CC(=N)N)c1cc(F)cc(F)c13)[nH]c2=O [Example 430, [4,6-difluoro-1′-(8-methyl-4-oxo-3,4,5,6,7,8-hexahydropyrido[2,3-d]pyrimidin-2-yl)-2-oxospiro[indoline-3,4′-piperidine]-1(2H)-yl]ethanimidamide] |
| < 20 nM | < 20 nM | 600 to 1000 nM | CN1CCCc2c1nc(N1CCC3(CC1)C(=O)N(C)c1cc(C(=O)O)cc(F)c13)[nH]c2=O [Example 431, 4-fluoro-1-methyl-1′-(8-methyl-4-oxo-3,4,5,6,7,8-hexahydro-pyrido[2,3-d]primi-din-2-yl)-2-oxospiro[indoline-3,4′-piperidine]-6-carboxylic acid] |
| 20 to 200 nM | 20 to 200 nM | 100 to 600 nM | CN1CCCc2c1nc(N1CCC3(CC1)C(=O)N(C)c1cc(OCCNS(C)(=O)=O)cc(F)c13)[nH]c2=O [Example 432, N-(2-{[4-fluoro-1-methyl-1′-(8-methyl-4-oxo-3,4,5,6,7,8-hexahy-dropyrido[2,3-d]py-rimidin-2-yl)-2-oxospiro [indoline-3,4′-piperi-din]-6-yl]oxy}ethyl) methanesulfonamide] |

The next lines start with the compound.

| SMILES | IC50 (tankyrase 2 (TNKS 2)) | IC50 (tankyrase 1 (TNKS 1)) | GI50 [1] |
| --- | --- | --- | --- |
| C[C@@H]1CN(c2cc(F)c3c(c2)N(CC(F)(F)F)C(=O)C32CCN(c3nc4c(c(=O)[nH]3)CCCN4C)CC2)C[C@H](C)N1 [Example 417, 6-(cis-3,5-dimethyl-piperazin-1-yl)-4-fluoro-1′-(8-methyl-4-oxo-3,4,5,6,7,8-hexahydropyrido[2,3-d]pyrimidin-2-yl)-1-(2,2,2-trifluoroethyl) spiro[indoline-3,4′-piperidin]-2-one] | < 20 nM | < 20 nM | 600 to 1000 nM |
| COCCN1C(=O)C2(CCN(c3nc4c(c(=O)[nH]3)CCCN4C)CC2)c2c(F)cc(OCc3nnn[nH]3)cc21 [Example 418, 4-fluoro-1-(2-methoxyethyl)-1′-(8-methyl-4-oxo-3,4,5,6,7,8-hexahydropyrido[2,3-d]pyrimidin-2-yl)-6-[(1H-tetrazole-5-yl)methoxy]spiro[indoline-3,4′-piperidine]-2(1H)-one] | < 20 nM | < 20 nM | 100 to 600 nM |
| CN1CCCc2c1nc(N1CCC3(CC1)C(=O)N(CC(F)(F)F)c1cc(OCc4nnn[nH]4)cc(F)c13)[nH]c2=O [Example 419, 6-[(1H-tetrazol-5-yl)methoxy]-4-fluoro-1′-(8-methyl-4-oxo-3,4,5,6,7,8-hexahydro-pyrido[2,3-d]pyrimidin-2-yl)-1-(2,2,2-trifluoro-ethyl)spiro[indoline-3,4′-piperidin]-2(1H)-one] | < 20 nM | < 20 nM | < 100 nM |
| CN1CCC(Oc2ccc(F)c3c2N(C)C(=O)C32CCN(c3nc4c(c(=O)[nH]3)CCCN4C)CC2)CC1 [Example 420, 4-fluoro-1′-(4-hydroxy-8-methyl-6,7-dihydro-5H-pyrido[2,3-d]pyrimidin-2-yl)-1-methyl-7-(1-methylpiperidin-4-yl)oxyspiro[indole-3,4′-piperidin]-2-one] | < 20 nM | < 20 nM | 100 to 600 nM |
| CN1CCCc2c1nc(N1CCC3(CC1)C(=O)N(C)c1c(OCC4CCNCC4)ccc(F)c13)[nH]c2=O [Example 421, 4-fluoro-1′-(4-hydroxy-8-methyl-6,7-dihydro-5H-pyrido[2,3-d]pyrimidin-2-yl)-1-meth-yl-7-(piperidin-4-yl-methoxy)spiro[indole-3,4′-piperidin]-2-one] | < 20 nM | < 20 nM | 100 to 600 nM |
| CN1CCCc2c1nc(N1CCC3(CC1)C(=O)N(C)c1c(OC4CC5CCC(C4)N5C)ccc(Cl)c13)[nH]c2=O (stereo not drawn) [Example 425, 4-chloro-1′-(4-hydroxy-8-methyl-6,7-dihydro-5H-pyrido[2,3-d]pyrimidin-2-yl)-1-methyl-7-[(8-methyl-8-azabicyclo [3.2.1]octan-3-yl)oxy] spiro[indole-3,4′-piperidin]-2-one] | < 20 nM | < 20 nM | 100 to 600 nM |
| CN1C(=O)C2(CCN(c3nc4c(c(=O)[nH]3)CCCN4)CC2)c2c(F)ccc(OCC(C)(C)O)c21 [Example 426, 4-fluoro-7-(2-hydroxy-2-methylpropoxy)-1′-(4-hydroxy-5,6,7,8-tetrahydropyrido[2,3-d]pyrimidin-2-yl)-1-methyl-spiro[indole-3,4′-piperidin]-2-one] | < 20 nM | < 20 nM | 100 to 600 nM |

Reference: patent publication US11414429B2, “Compound or pharmaceutically acceptable salt thereof” (RIKEN, priority 2016, dated 2022)
